From US20230295260A1, “GLP RECEPTOR AGONISTS” (HEPTARES THERAPEUTICS LIMITED, priority 2020, published 2023)
Starred links: 1 amine or outer side, 2 acyl side, 3 side chain; linkers in the order of their positions; H or OH if unused. Non-standard residues stand in square brackets, D forms with d. Residues, ends and D or L forms follow the SMILES beside them. Groups on a side chain read outwards from the residue. ξ: configuration not given here. *: point of attachment. Malonyl(2,2-Me2,histaminyl) = CC(C)(C(=O)NCCc1cnc[nH]1)C(=O)*; Ala(1H-tetrazol-5-yl) = N[C@@H](Cc1nnn[nH]1)C(=O)O; C18 diacid = O=C(O)CCCCCCCCCCCCCCCCC(=O)*; γGlu = O=C(O)[C@H](CCC(=O)[*:2])N[*:1]; ξαMePhe(2-F) = CC(N)(Cc1ccccc1F)C(=O)O; Nle = CCCC[C@H](N)C(=O)O; AEEA = NCCOCCOCC(=O)O; Aib = CC(C)(N)C(=O)O; Alloc = C=CCOC(=O)*

Experiments:
human GLP1 receptor = biological target: T1, human GLP1 receptor (Homo sapiens, UniProt P43220); test: cAMP accumulation assay (HTRF), functional agonism of human GLP1 receptor in HEK cells; type: cell-based; settings: HEK cells, human GLP1 receptor BacMam, 45 min 37° C.; for Emax: HEK293, read-out: Human GLP-1R agonist cAMP Emax; for EC50: read-out: Human GLP-1R agonist cAMP pEC50 (converted)
T1 construct: expressed in transfected cells; host or cells: HEK cells, BacMam virus transduction
Description: (§1) The functional activity of the peptides were assessed using a HTRF cAMP assay. pEC50 values are quoted.
(§2) cAMP production upon agonist stimulation of human GLP2 or GLP1 receptor was assessed utilizing HiRange cAMP kit (Cisbio). In brief, HEK cells were infected with either human GLP2 or GLP1 receptor BacMam virus for 24 hours and frozen for later use in the assay. […] Cells were prepared in the assay buffer (HBSS (Lonza) supplemented with 0.5 mM IBMX (Tocris)). After 45 min incubation at 37° C., the reaction was stopped by addition of the HTRF detection reagents in the lysis buffer provided in the kit.

human GLP2 receptor = biological target: T2, human GLP2 receptor (Homo sapiens, UniProt O95838); test: cAMP accumulation assay (HTRF), functional agonism of human GLP2 receptor in HEK cells; settings: for Emax: HEK293, read-out: Human GLP-2R agonist cAMP Emax;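 for all read-outs here: HEK cells transduced via BacMam to express human GLP2 receptor, agonist-stimulated cAMP measured by HTRF after 45 min at 37 °C in HBSS with 0.5 mM IBMX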
T2 sequence (O95838 1-553): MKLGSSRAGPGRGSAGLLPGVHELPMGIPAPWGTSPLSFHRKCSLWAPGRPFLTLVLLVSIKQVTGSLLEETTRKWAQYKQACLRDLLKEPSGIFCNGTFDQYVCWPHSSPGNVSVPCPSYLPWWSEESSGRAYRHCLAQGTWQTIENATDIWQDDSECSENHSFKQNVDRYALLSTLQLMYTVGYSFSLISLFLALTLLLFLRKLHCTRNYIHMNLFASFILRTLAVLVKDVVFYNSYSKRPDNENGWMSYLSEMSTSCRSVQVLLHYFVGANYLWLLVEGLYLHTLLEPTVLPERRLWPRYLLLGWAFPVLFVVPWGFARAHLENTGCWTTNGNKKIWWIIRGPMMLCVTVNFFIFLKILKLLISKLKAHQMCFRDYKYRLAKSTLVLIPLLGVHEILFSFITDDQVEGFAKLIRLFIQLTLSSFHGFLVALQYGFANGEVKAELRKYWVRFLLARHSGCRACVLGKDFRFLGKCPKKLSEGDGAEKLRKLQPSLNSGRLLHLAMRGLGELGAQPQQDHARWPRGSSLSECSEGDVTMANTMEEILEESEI
Description: as §1, §2

T1 sequence (P43220 24-463): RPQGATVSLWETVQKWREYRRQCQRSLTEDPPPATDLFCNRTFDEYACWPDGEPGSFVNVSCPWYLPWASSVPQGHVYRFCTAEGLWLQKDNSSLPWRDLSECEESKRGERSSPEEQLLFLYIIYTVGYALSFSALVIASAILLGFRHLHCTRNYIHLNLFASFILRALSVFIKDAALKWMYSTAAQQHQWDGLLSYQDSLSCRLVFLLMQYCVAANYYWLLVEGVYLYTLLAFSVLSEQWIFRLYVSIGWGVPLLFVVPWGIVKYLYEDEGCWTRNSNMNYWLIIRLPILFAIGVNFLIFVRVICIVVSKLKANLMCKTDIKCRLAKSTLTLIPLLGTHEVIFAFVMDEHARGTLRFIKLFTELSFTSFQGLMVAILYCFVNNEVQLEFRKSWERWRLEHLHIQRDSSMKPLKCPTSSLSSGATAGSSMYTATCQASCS

| Emax (human GLP1 receptor) | EC50 (human GLP1 receptor) | EC50 (human GLP2 receptor) | Emax (human GLP2 receptor) | Structure (SMILES) |
| --- | --- | --- | --- | --- |
| 62.2% | 39.8 nM | 0.01 nM | 102% | C=CCOC(=O)NCCCC[C@H](NC(=O)[C@H](CC(C)C)NC(=O)[C@H](CC(=O)O)NC(=O)[C@H](CC(C)C)NC(=O)C(C)(C)NC(=O)[C@@H](NC(=O)[C@@H](Cc1ccccc1)NC(=O)[C@H](CCCC)NC(=O)[C@H](CCC(=O)O)NC(=O)[C@H](CC(=O)O)NC(=O)[C@H](CO)NC(=O)[C@H](Cc1ccccc1)NC(=O)[C@H](CO)NC(=O)[C@@H](C)NC(=O)[C@H](Cc1nn[nH]n1)NC(=O)C(C)(C)C(=O)NCCc1c[nH]cn1)[C@@H](C)O)C(=O)N[C@@H](C)C(=O)N[C@@H](C)C(=O)NC(C)(C)C(=O)N[C@@H](CC(=O)O)C(=O)N[C@@H](Cc1ccccc1)C(=O)N[C@H](C(=O)N[C@@H](CC(N)=O)C(=O)N[C@@H](Cc1c[nH]c2ccccc12)C(=O)N[C@@H](CC(C)C)C(=O)N[C@H](C(=O)N[C@@H](CCC(N)=O)C(=O)N[C@H](C(=O)N[C@@H](CCCCN)C(=O)N[C@H](C(=O)N[C@H](C(=O)N[C@@H](Cc1ccccc1)C(N)=O)[C@@H](C)O)[C@@H](C)CC)[C@@H](C)O)[C@@H](C)CC)[C@@H](C)CC [Example 7] ({Malonyl(2,2-Me2,histaminyl)}-[Ala(1H-tetrazol-5-yl)][dA]SFSDE[Nle][dF]T[Aib]LDLK(Alloc)AA[Aib]DFINWLIQTKITF-NH2) |
| 89.8% | 12.6 nM | 0.0316 nM | 103% | CCCC[C@H](NC(=O)[C@H](CCC(=O)O)NC(=O)[C@H](CC(=O)O)NC(=O)[C@H](CO)NC(=O)[C@H](Cc1ccccc1)NC(=O)[C@H](CO)NC(=O)CNC(=O)[C@H](Cc1nn[nH]n1)NC(=O)C(C)(C)C(=O)NCCc1c[nH]cn1)C(=O)N[C@H](Cc1ccccc1)C(=O)N[C@H](C(=O)N[C@H](C(=O)N[C@@H](CC(C)C)C(=O)N[C@@H](CC(=O)O)C(=O)N[C@@H](CC(C)C)C(=O)N[C@@H](CCCCNC(=O)CC[C@H](NC(=O)COCCOCCNC(=O)COCCOCCNC(=O)CCCCCCCCCCCCCCCCC(=O)O)C(=O)O)C(=O)N[C@@H](C)C(=O)N[C@@H](C)C(=O)N[C@@H](CCCCN)C(=O)N[C@@H](CC(=O)O)C(=O)N[C@@H](Cc1ccccc1)C(=O)N[C@H](C(=O)N[C@@H](CC(N)=O)C(=O)N[C@@H](Cc1c[nH]c2ccccc12)C(=O)N[C@@H](CC(C)C)C(=O)N[C@H](C(=O)N[C@@H](CCC(N)=O)C(=O)N[C@H](C(=O)N[C@@H](CCCCN)C(=O)N[C@H](C(=O)N[C@H](C(=O)N[C@@H](Cc1ccccc1)C(N)=O)[C@@H](C)O)[C@@H](C)CC)[C@@H](C)O)[C@@H](C)CC)[C@@H](C)CC)[C@@H](C)CC)[C@@H](C)O [Example 23] ({Malonyl(2,2-Me2,histaminyl)}-[Ala(1H-tetrazol-5-yl)]GSFSDE[Nle][dF]TILDLK([γGlu-AEEA-AEEA-C18 diacid])AAKDFINWLIQTKITF-NH2) |
| 96% | 15.8 nM | 0.01 nM | 102% | C=CCOC(=O)NCCCC[C@H](NC(=O)[C@H](C)NC(=O)C(C)(C)NC(=O)[C@H](CCCCNC(=O)OCC=C)NC(=O)[C@H](CC(C)C)NC(=O)[C@H](CC(=O)O)NC(=O)[C@H](CC(C)C)NC(=O)C(C)(C)NC(=O)[C@@H](NC(=O)[C@@H](Cc1ccccc1)NC(=O)[C@H](CCCC)NC(=O)[C@H](CCC(=O)O)NC(=O)[C@H](CC(=O)O)NC(=O)[C@H](CO)NC(=O)[C@H](Cc1ccccc1)NC(=O)[C@H](CO)NC(=O)CNC(=O)[C@H](Cc1nn[nH]n1)NC(=O)C(C)(C)C(=O)NCCc1c[nH]cn1)[C@@H](C)O)C(=O)N[C@@H](CC(=O)O)C(=O)N[C@@H](Cc1ccccc1)C(=O)N[C@H](C(=O)N[C@@H](CC(N)=O)C(=O)N[C@@H](Cc1c[nH]c2ccccc12)C(=O)N[C@@H](CC(C)C)C(=O)N[C@H](C(=O)N[C@@H](CCC(N)=O)C(=O)N[C@H](C(=O)N[C@@H](CCCCN)C(=O)N[C@H](C(=O)N[C@H](C(=O)N[C@@H](CC(=O)O)C(N)=O)[C@@H](C)O)[C@@H](C)CC)[C@@H](C)O)[C@@H](C)CC)[C@@H](C)CC [Example 16] ({Malonyl(2,2-Me2,histaminyl)}-[Ala(1H-tetrazol-5-yl)]GSFSDE[Nle][dF]T[Aib]LDLK(Alloc)[Aib]AK(Alloc)DFINWLIQTKITD-NH2) |
| 98.1% | – | – | 99.3% | C=CCOC(=O)NCCCC[C@H](NC(=O)[C@H](CC(C)C)NC(=O)[C@H](CC(=O)O)NC(=O)[C@H](CC(C)C)NC(=O)[C@@H](NC(=O)[C@@H](NC(=O)[C@@H](Cc1ccccc1)NC(=O)[C@H](CCCC)NC(=O)[C@H](CCC(=O)O)NC(=O)[C@H](CC(=O)O)NC(=O)[C@H](CO)NC(=O)C(C)(Cc1ccccc1F)NC(=O)[C@H](CO)NC(=O)CNC(=O)[C@H](CC(=O)O)NC(=O)C(C)(C)C(=O)NCCc1c[nH]cn1)[C@@H](C)O)[C@@H](C)CC)C(=O)N[C@@H](C)C(=O)N[C@@H](C)C(=O)N[C@@H](CCCCN)C(=O)N[C@@H](CC(=O)O)C(=O)N[C@@H](Cc1ccccc1)C(=O)N[C@H](C(=O)N[C@@H](CC(N)=O)C(=O)N[C@@H](Cc1c[nH]c2ccccc12)C(=O)N[C@@H](CC(C)C)C(=O)N[C@H](C(=O)N[C@@H](CCC(N)=O)C(=O)N[C@H](C(=O)N[C@@H](CCCCN)C(=O)N[C@H](C(=O)N[C@H](C(=O)N[C@@H](CC(=O)O)C(N)=O)[C@@H](C)O)[C@@H](C)CC)[C@@H](C)O)[C@@H](C)CC)[C@@H](C)CC (stereo partly drawn) [Example 4] ({Malonyl(2,2-Me2,histaminyl)}-DGS[ξαMePhe(2-F)]SDE[Nle][dF]TILDLK(Alloc)AAKDFINWLIQTKITD-NH2; C-terminus assumed) |
| 96.1% | 12.6 nM | 0.01 nM | 101% | C=CCOC(=O)NCCCC[C@H](NC(=O)[C@H](C)NC(=O)[C@H](C)NC(=O)[C@H](CCCCNC(=O)OCC=C)NC(=O)[C@H](CC(C)C)NC(=O)[C@H](CC(=O)O)NC(=O)[C@H](CC(C)C)NC(=O)[C@@H](NC(=O)[C@@H](NC(=O)[C@@H](Cc1ccccc1)NC(=O)[C@H](CCCC)NC(=O)[C@H](CCC(=O)O)NC(=O)[C@H](CC(=O)O)NC(=O)[C@H](CO)NC(=O)[C@H](Cc1ccccc1)NC(=O)[C@H](CO)NC(=O)CNC(=O)[C@H](Cc1nn[nH]n1)NC(=O)C(C)(C)C(=O)NCCc1c[nH]cn1)[C@@H](C)O)[C@@H](C)CC)C(=O)N[C@@H](CC(=O)O)C(=O)N[C@@H](Cc1ccccc1)C(=O)N[C@H](C(=O)N[C@@H](CC(N)=O)C(=O)N[C@@H](Cc1c[nH]c2ccccc12)C(=O)N[C@@H](CC(C)C)C(=O)N[C@H](C(=O)N[C@@H](CCC(N)=O)C(=O)N[C@H](C(=O)N[C@@H](CCCCN)C(=O)N[C@H](C(=O)N[C@H](C(=O)N[C@@H](CC(=O)O)C(N)=O)[C@@H](C)O)[C@@H](C)CC)[C@@H](C)O)[C@@H](C)CC)[C@@H](C)CC [Example 14] ({Malonyl(2,2-Me2,histaminyl)}-[Ala(1H-tetrazol-5-yl)]GSFSDE[Nle][dF]TILDLK(Alloc)AAK(Alloc)DFINWLIQTKITD-NH2) |
